Measurements: patent US8415364B2, “Method of preventing or treating glaucoma” (Duke University, priority 2003, dated 2013)

Assays:
[1] = tested on: myosin light chain (MLC) phosphorylation; experiment: MLC phosphorylation by urea/glycerol PAGE and Western blot in PTM cells; assay type: cell-based, porcine
Procedure: (§1) Porcine primary trabecular meshwork (PTM) and ciliary muscle cells (PCM) were cultured and treated with lovastatin or compactin at concentrations of 25 μM and 50 μM. Effects on actin stress fibers (phalloidin staining) and focal adhesion formation (vinculin) were evaluated by immunofluorescence staining. Urea/glycerol polyacrylamide gel electrophoresis and Western blot analysis were utilized to investigate the effects of statins on myosin light chain (MLC) phosphorylation. Changes in cell shape were recorded using the phase contrast microscope. A constant flow organ culture perfusion system was used to measure outflow facility in perfused porcine eye anterior segments.

[2] = tested on: Porcine primary trabecular meshwork (PTM) cells; experiment: Cell shape by phase contrast microscopy in PTM cells; assay type: cell-based
Procedure: as §1

[3] = tested on: Porcine primary trabecular meshwork (PTM) cells; experiment: Actin stress fibers (phalloidin) and focal adhesion (vinculin) immunofluorescence staining in PTM cells; assay type: cell-based
Procedure: as §1

[4] = tested on: perfused porcine eye anterior segments; experiment: Constant flow organ culture perfusion of porcine eye anterior segments
Procedure: as §1

[5] = PTM cells, within 24 hours of drug administration

Structure (SMILES)	MLC phosphorylation [1]	changes in cell shape ([2]; 25 μM and 50 μM)	reversibility of morphological changes ([2]; upon drug withdrawal)	effect on actin stress fibers [3, 5]	effect on focal adhesions [3, 5]	drop in intraocular pressure ([4]; 100 μM, at 72 hours, control eyes 22% reduction, ongoing study) [%]	ability to decrease IOP ([4]; organ culture perfusion model)	effect on lovastatin-induced changes in cell shape and cytoskeletal organization ([3]; supplementation of cell culture media containing lovastatin)
CC[C@H](C)C(=O)O[C@H]1C[C@@H](C)C=C2C=C[C@H](C)[C@H](CC[C@@H]3C[C@@H](O)CC(=O)O3)[C@H]21 [lovastatin]	marked reduction	dramatic changes in cell shape	reversible upon drug withdrawal	actin depolymerization	loss of focal adhesions	48	ability to decrease IOP	–
CC(C)=CCC/C(C)=C/CC/C(C)=C/CC/C(C)=C/COP(=O)(O)OP(=O)(O)O [geranylgeranyl pyrophosphate]	–	–	–	–	–	–	–	completely reversed
